# In publication PMC10009752 (Journal of Medicinal Chemistry, 2023):
# Test system: CRL-1831 cells
# Assay: Cytoplasmic cholesterol levels (AmplexRed), CRL-1831
# Assay type: cell-based, human
# Details: 10 μM, 4 h
# Description: After 4 h exposure to 10 μM of both compounds at 37 °C, cells were trypsinized, washed with PBS, and pelleted by centrifugation at 8000g for 5 min. Cytoplasmic cholesterol levels were quantitated using the AmplexRed Cholesterol Assay kit.[48] Briefly, the pellets were resuspended in the reaction buffer and lysed with a 29G syringe. The working solution, containing the Amplex Red reagent (300 mM), horseradish peroxidase (2 U/mL), cholesterol oxidase (2 U/mL), and cholesterol esterase (0.2 U/mL) in 1× reaction buffer was freshly prepared before each experiment. […] Working solution (50 μL), 40 μL of 1× reaction buffer, and 40 μL of cell lysates were placed in a 96-well plate and incubated at 37 °C for 30 min. After 4 h, fluorescence measurements were recorded (λexc = 540 nm, λem = 590 nm) using a SpectraMax Gemini XPS microplate reader (Molecular Device, Milan – Italy).
row,SMILES,"cytoplasmic cholesterol concentration, CRL-1831"
1,"CCC(C)(C)C(=O)O[C@H]1C[C@@H](C)C=C2C=C[C@H](C)[C@H](CC[C@@H]3C[C@@H](O)CC(=O)O3)[C@H]21 [Simvastatin, reference compound]",significantly decreased

# Test system: 5′-biotinylated dsDNA (DNA, duplex) TGTAATCGTAGGTTGGTCCCATCACCCACC/GGTGGGTGATGGGACCAACCTACGATTACA
# Assay: resonant mirror optical biosensor kinetics (IAsys plus)
# Details: 138 mM NaCl, 2.7 mM KCl; PBS (10 mM Na2HPO4), pH 7.4, 37 °C; monoexponential fit
row,SMILES,KD
1,Cc1nn(-c2ccccc2)c([O-])c1C(=O)c1ccco1.Cc1nn(-c2ccccc2)c([O-])c1C(=O)c1ccco1.Cc1nn(-c2ccccc2)c([O-])c1C(=O)c1ccco1.[Ga+3],3.63 ± 1.88 µM
2,Cc1nn(-c2ccccc2)c([O-])c1C(=O)c1cccs1.Cc1nn(-c2ccccc2)c([O-])c1C(=O)c1cccs1.Cc1nn(-c2ccccc2)c([O-])c1C(=O)c1cccs1.[Ga+3],2.24 ± 1.36 µM

# The remaining lines, values ahead:
row,KD,SMILES
1,3.34 ± 1.67 µM,COc1ccc(C(=O)c2c(C)nn(-c3ccccc3)c2[O-])cc1.COc1ccc(C(=O)c2c(C)nn(-c3ccccc3)c2[O-])cc1.COc1ccc(C(=O)c2c(C)nn(-c3ccccc3)c2[O-])cc1.[Ga+3]
2,3.27 ± 0.78 µM,Cc1nn(-c2ccccc2)c([O-])c1C(=O)c1ccc(C(C)(C)C)cc1.Cc1nn(-c2ccccc2)c([O-])c1C(=O)c1ccc(C(C)(C)C)cc1.Cc1nn(-c2ccccc2)c([O-])c1C(=O)c1ccc(C(C)(C)C)cc1.[Ga+3]
3,0.76 ± 0.54 µM,Cc1nn(-c2ccccc2)c([O-])c1C(=O)c1ccccc1.Cc1nn(-c2ccccc2)c([O-])c1C(=O)c1ccccc1.Cc1nn(-c2ccccc2)c([O-])c1C(=O)c1ccccc1.[Ga+3]
